Assay results reported in patent publication US20170334899A1, “AMINO-SUBSTITUTED ISOTHIAZOLES” (Bayer Pharma Aktiengesellschaft, priority 2014, published 2017).
Like-named read-outs stand apart in the source and are kept apart here.

Tests used:
CDK2/CycE = biological target: T1, CDK2/CycE (Homo sapiens, UniProt P24941); test: CDK2/CycE kinase assay (TR-FRET); type: biochemical; settings: avg, read-out: CDK2 avg (IC50 [mol/l])
T1 construct: GST; purchased ProQinase GmbH (Freiburg, Germany); host or cells: insect cells (Sf9)
Excerpt: CDK2/CycE -inhibitory activity of compounds of the present invention was quantified employing the CDK2/CycE TR-FRET assay as described in the following paragraphs.
Recombinant fusion proteins of GST and human CDK2 and of GST and human CycE, expressed in insect cells (Sf9) and purified by Glutathion-Sepharose affinity chromatography, were purchased from ProQinase GmbH (Freiburg, Germany). As substrate for the kinase reaction biotinylated peptide biotin-Ttds-YISPLKSPYKISEG (C-terminus in amid form) was used which can be purchased e.g. form the company JERINI peptide technologies (Berlin, Germany).
For the assay 50 nl of a 100fold concentrated solution of the test compound in DMSO was pipetted into a black low volume 384we11 microtiter plate (Greiner Bio-One, Frickenhausen, Germany), 2 μl of a solution of CDK2/CycE in aqueous assay buffer [50 mM Tris/HCl pH 8.0, 10 mM MgCl2, 1.0 mM dithiothreitol, 0.1 mM sodium ortho-vanadate, 0.01% (v/v) Nonidet-P40 (Sigma)] were added and the mixture was incubated for 15 min at 22° C. to allow pre-binding of the test compounds to the enzyme before the start of the kinase reaction. Then the kinase reaction was started by the addition of 3 μl of a solution of adenosine-tri-phosphate (ATP, 16.7 μM=>final conc. in the 5 μl assay volume is 10 μM) and substrate (1.25 μM=>final conc. in the 5 μl assay volume is 0.75 μM) in assay buffer and the resulting mixture was incubated for a reaction time of 25 min at 22° C. The concentration of CDK2/CycE was adjusted depending of the activity of the enzyme lot and was chosen appropriate to have the assay in the linear range, typical concentrations were in the range of 130 ng/ml. The reaction was stopped by the addition of 5 μl of a solution of TR-FRET detection reagents (0.2 μM streptavidine-XL665 [Cisbio Bioassays, Codolet, France] and 1 nM anti-RB(pSer807/pSer811)-antibody from BD Pharmingen [#558389] and 1.2 nM LANCE EU-W1024 labeled anti-mouse IgG antibody [Perkin-Elmer, product no. AD0077, as an alternative a Terbium-cryptate-labeled anti-mouse IgG antibody from Cisbio Bioassays can be used]) in an aqueous EDTA-solution (100 mM EDTA, 0.2% (w/v) bovine serum albumin in 100 mM HEPES/NaOH pH 7.0).
The resulting mixture was incubated 1 h at 22° C. to allow the formation of complex between the phosphorylated biotinylated peptide and the detection reagents. Subsequently the amount of phosphorylated substrate was evaluated by measurement of the resonance energy transfer from the Eu-chelate to the streptavidine-XL. Therefore, the fluorescence emissions at 620 nm and 665 nm after excitation at 350 nm was measured in a TR-FRET reader, e.g. a Rubystar (BMG Labtechnologies, Offenburg, Germany) or a Viewlux (Perkin-Elmer). The ratio of the emissions at 665 nm and at […] was taken as the measure for the amount of phosphorylated substrate. The data were normalised (enzyme reaction without inhibitor=0% inhibition, all other assay components but no enzyme=100% inhibition).

HeLa = test: Proliferation assay (crystal violet), HeLa; type: cell-based; settings: HeLa cells, 4 days incubation, crystal violet staining, read-out: IC50 inhibition of proliferation, HeLa
Summary of the method: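 Absorbance at 595 nm of crystal-violet-stained cells after 4 days' exposure to 0.001–10 μM compound (0.5% DMSO). Values normalized to a day-0 plate (0%) and untreated cells (100%); IC50 by 4-parameter fit.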

Row | SMILES | IC50 (CDK2/CycE) [µM] | IC50 (HeLa; Homo sapiens, HeLa, 96 h) [µM] | IC50 (HeLa) [µM]
1 | Cc1nsc(Nc2cnc(C(F)(F)F)cn2)c1C(=O)Nc1ccc(OCC2CCN(CC(F)(F)F)C2)nc1 (stereo not drawn) [Example 123, 3-Methyl-N-(6-{[1-(2,2,2-trifluoroethyl)pyrrolidin-3-yl]methoxy}pyridin-3-yl)-5-{[5-(trifluoromethyl)pyrazin-2-yl]amino}-1,2-thiazole-4-carboxamide] | ≥ 20 | 0.13 | –
2 | Cc1nsc(Nc2cnc(C(F)(F)F)cn2)c1C(=O)Nc1ccc(C(=O)N2CCN(CC(F)F)CC2)cc1 [Example 154, N-(4-{[4-(2,2-difluoroethyl)piperazin-1-yl]carbonyl}phenyl)-3-methyl-5-{[5-(trifluoromethyl)pyrazin-2-yl]amino}-1,2-thiazole-4-carboxamide] | > 20 | 2.5 | –
3 | Cc1nsc(Nc2cnc3ccccc3n2)c1C(=O)Nc1cccc(C(=O)N[C@@H](CCC(N)=O)C(=O)O)c1 [Example 103, N^2-[3-({[3-Methyl-5-(quinoxalin-2-ylamino)-1,2-thiazol-4-yl]carbonyl}amino)-benzoyl]glutamine] | ≥ 20 | 10 | –
4 | Cc1nsc(Nc2cnc3ccccc3n2)c1C(=O)Nc1ccc(N2CCOCC2)nc1 [Example 169, 3-methyl-N-[6-(morpholin-4-yl)pyridin-3-yl]-5-(quinoxalin-2-ylamino)-1,2-thiazole-4-carboxamide] | > 20 | > 10 | –
5 | Cc1noc(-c2cccc(NC(=O)c3c(C)nsc3Nc3cnc4ccccc4n3)c2)n1 [Example 106, 3-Methyl-N-[3-(3-methyl-1,2,4-oxadiazol-5-yl)phenyl]-5-(quinoxalin-2-ylamino)-1,2-thiazole-4-carboxamide] | ≥ 20 | 1.7 | –
6 | Cc1nsc(Nc2cnc3ccccc3n2)c1C(=O)Nc1cccc(-c2nc(C(C)(C)C)no2)c1 [Example 108, N-[3-(3-tert-Butyl-1,2,4-oxadiazol-5-yl)phenyl]-3-methyl-5-(quinoxalin-2-ylamino)-1,2-thiazole-4-carboxamide] | ≥ 20 | 0.91 | –
7 | CC(=O)N(C)CCOc1ccc(NC(=O)c2c(C)nsc2Nc2nc3c(C(F)(F)F)cccc3s2)cn1 [Example 112, N-(6-{2-[Acetyl(methyl)amino]-ethoxy}pyridin-3-yl)-3-methyl-5-{[4-(trifluoromethyl)-1,3-benzothiazol-2-yl]amino}-1,2-thiazole-4-carboxamide] | ≥ 20 | 8.8 | –
8 | Cc1nsc(Nc2cnc(C(F)(F)F)cn2)c1C(=O)Nc1ccc(O[C@H]2CCN(CCC(F)(F)F)C[C@H]2F)nc1 [Example 146, N-(6-{[(3R,4S)-3-fluoro-1-(3,3,3-trifluoropropyl)piperidin-4-yl]oxy}pyridin-3-yl)-3-methyl-5-{[5-(trifluoromethyl)pyrazin-2-yl]amino}-1,2-thiazole-4-carboxamide] | > 20 | 0.24 | –
9 | CC(=O)Nc1cc(NC(=O)c2c(C)nsc2Nc2ccc(C#N)cn2)ccc1F [Example 152, N-(3-acetamido-4-fluorophenyl)-5-[(5-cyanopyridin-2-yl)amino]-3-methyl-1,2-thiazole-4-carboxamide] | > 20 | > 10 | –
10 | Cc1nsc(Nc2cc(C#N)ccn2)c1C(=O)Nc1cccc(C(=O)N2CCCC2)c1 [Example 114, 5-[(4-Cyanopyridin-2-yl)amino]-3-methyl-N-[3-(pyrrolidin-1-ylcarbonyl)phenyl]-1,2-thiazole-4-carboxamide] | ≥ 20 | 10 | –
11 | Cc1nsc(Nc2cnc(C(F)(F)F)cn2)c1C(=O)Nc1ccc(OC[C@@H]2CCCN(CCC(F)(F)F)C2)nc1 [Example 422, 3-Methyl-5-{[5-(trifluoromethyl)pyrazin-2-yl]amino}-N-(6-{[(3R)-1-(3,3,3-trifluoropropyl)piperidin-3-yl]methoxy}pyridin-3-yl)-1,2-thiazole-4-carboxamide] | – | – | 0.37

The next lines start with the values.

Row | IC50 (CDK2/CycE) [µM] | IC50 (HeLa; Homo sapiens, HeLa, 96 h) [µM] | IC50 (HeLa) [µM] | SMILES
12 | > 20 | 0.45 | – | Cc1nsc(Nc2cnc(C(F)(F)F)cn2)c1C(=O)Nc1ccc(OC[C@H]2CCN(CC(F)F)C2)nc1 [Example 132, N-(6-{[(3S)-1-(2,2-difluoroethyl)pyrrolidin-3-yl]methoxy}pyridin-3-yl)-3-methyl-5-{[5-(trifluoromethyl)pyrazin-2-yl]amino}-1,2-thiazole-4-carboxamide]
13 | ≥ 20 | 0.22 | – | Cc1nsc(Nc2cnc(C(F)(F)F)cn2)c1C(=O)Nc1ccc(OC2CCN(CC(F)(F)F)CC2)nc1 [Example 9, -Methyl-N-(6-{[1-(2,2,2-trifluoroethyl)piperidin-4-yl]oxy}pyridin-3-yl)-5-{[5-(trifluoromethyl)pyrazin-2-yl]amino}-1,2-thiazole-4-carboxamide]
14 | ≥ 20 | 10 | – | Cc1nsc(Nc2cnc(C(F)(F)F)cn2)c1C(=O)Nc1ccc(OC2CCNCC2)nc1 [Example 6, 3-Methyl-N-[6-(piperidin-4-yloxy)pyridin-3-yl]-5-{[5-(trifluoromethyl)pyrazin-2-yl]amino}-1,2-thiazole-4-carboxamide]
15 | > 20 | 0.33 | – | Cc1nsc(Nc2cnc(C(F)(F)F)cn2)c1C(=O)Nc1ccc(OC2CCN(CCF)CC2)c(F)c1 [Example 162, N-(3-fluoro-4-{[1-(2-fluoroethyl)piperidin-4-yl]oxy}phenyl)-3-methyl-5-{[5-(trifluoromethyl)pyrazin-2-yl]amino}-1,2-thiazole-4-carboxamide]
16 | > 20 | 0.26 | – | Cc1nsc(Nc2cnc(C(F)(F)F)cn2)c1C(=O)Nc1ccc(O[C@@H]2CCN(CCC(F)(F)F)C[C@@H]2F)nc1 [Example 139, N-(6-{[(3S,4R)-3-fluoro-1-(3,3,3-trifluoropropyl)piperidin-4-yl]oxy}pyridin-3-yl)-3-methyl-5-{[5-(trifluoromethyl)pyrazin-2-yl]amino}-1,2-thiazole-4-carboxamide]
17 | > 20 | 0.91 | – | Cc1nsc(Nc2cncc(C(F)(F)F)n2)c1C(=O)Nc1ccc(F)c(OC2CCN(C(=O)OC(C)(C)C)CC2)c1 [Example 168, tert-butyl 4-(2-fluoro-5-{[(3-methyl-5-{[6-(trifluoromethyl)pyrazin-2-yl]amino}-1,2-thiazol-4-yl)carbonyl]amino}phenoxy)piperidine-1-carboxylate]
18 | – | – | 0.41 | Cc1nsc(Nc2cnc(C(F)(F)F)cn2)c1C(=O)Nc1ccc(O[C@@H]2CCN(CCC(F)(F)F)C2)nc1 [Example 423, 3-Methyl-5-{[5-(trifluoromethyl)pyrazin-2-yl]amino}-N-(6-{[(3R)-1-(3,3,3-trifluoropropyl)pyrrolidin-3-yl]oxy}pyridin-3-yl)-1,2-thiazole-4-carboxamide]
19 | – | 0.82 | – | Cc1nsc(Nc2cnc(C(F)(F)F)cn2)c1C(=O)Nc1ccc(OCC2CCN(CCF)C2)nc1 (stereo not drawn) [Example 121, N-(6-{[1-(2-fluoroethyl)pyrrolidin-3-yl]methoxy}pyridin-3-yl)-3-methyl-5-{[5-(trifluoromethyl)pyrazin-2-yl]amino}-1,2-thiazole-4-carboxamide]
20 | – | – | 0.55 | Cc1nsc(Nc2cnc(C(F)(F)F)cn2)c1C(=O)Nc1ccc(O[C@@H]2CCN(CC(F)(F)F)C2)nc1 [Example 421, 3-Methyl-N-(6-{[(3R)-1-(2,2,2-trifluoroethyl)pyrrolidin-3-yl]oxy}pyridin-3-yl)-5-{[5-(trifluoromethyl)pyrazin-2-yl]amino}-1,2-thiazole-4-carboxamide]
